The values that follow come from patent publication EP1159267B1, “N-SUBSTITUTED INDOLINES AS ESTROGENIC AGENTS” (Wyeth, priority 1999, dated 2000).

SMILES strings stand for the structures. Structures can show the parent of a compound that is named as a salt.

For this experiment, the target named is T1, estrogen receptor (ER) (Homo sapiens, UniProt P03372).
T1 construct: expressed in transfected cells; host or cells: CHO cells (ribosome-free cytosol)
T1 sequence (P03372 1-595): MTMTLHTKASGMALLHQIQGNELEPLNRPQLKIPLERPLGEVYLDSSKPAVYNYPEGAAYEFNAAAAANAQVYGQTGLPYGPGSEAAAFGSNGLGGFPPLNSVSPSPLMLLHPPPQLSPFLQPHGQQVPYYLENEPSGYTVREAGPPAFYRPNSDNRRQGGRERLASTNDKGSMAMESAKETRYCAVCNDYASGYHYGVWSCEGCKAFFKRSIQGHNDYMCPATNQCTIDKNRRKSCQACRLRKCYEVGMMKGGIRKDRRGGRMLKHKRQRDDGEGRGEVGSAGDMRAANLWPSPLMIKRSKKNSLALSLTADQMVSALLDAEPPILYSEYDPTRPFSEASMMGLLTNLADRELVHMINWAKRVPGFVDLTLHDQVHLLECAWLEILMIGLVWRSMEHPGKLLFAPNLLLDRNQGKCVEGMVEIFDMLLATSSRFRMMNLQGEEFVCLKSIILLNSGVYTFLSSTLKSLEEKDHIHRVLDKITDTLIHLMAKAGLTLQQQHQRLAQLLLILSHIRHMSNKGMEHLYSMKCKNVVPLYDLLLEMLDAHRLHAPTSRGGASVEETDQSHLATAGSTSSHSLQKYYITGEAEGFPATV
The experiment in a line: Receptor Binding Assay (competition with [3H]17β-estradiol). The following applies: cytosol of CHO cells overexpressing the estrogen receptor; 0.8 nM [3H]17β-estradiol; 12 competitor concentrations; room temperature, 2.5 h.
Usually IC50 stands for the concentration that inhibits the measured activity by half. Read a low IC50 as inhibition by little substance. Take `CC1(C)c2cc(O)ccc2N(Cc2ccc(OCCN3CCCCC3)cc2)C1c1ccccc1` (stereo not shown) [Example No. 4, 3,3-dimethyl-2-phenyl-1-[4-(2-piperidin-1-yl-ethoxy)-benzyl]-2,3-dihydro-1H-indol-5-ol (HCl)]: the IC50 is 0.8 µM. Compound `CC1(C)c2cc(O)ccc2N(Cc2ccc(OCCN3CCCCCC3)cc2)C1c1ccccc1` (stereo not shown) [Example No. 6, 1-[4-(2-Azepan-1-yl-ethoxy)-benzyl]-3,3-dimethyl-2-phenyl-2,3-dihydro-1H-indol-5-ol] displayed an IC50 of 1 µM. The value for `CC1(C)c2cc(O)ccc2N(Cc2ccc(OCCN3CCCCC3)cc2)C1c1ccc(O)cc1` (stereo not shown) [Example No. 9, 2-(4-Hydroxy-phenyl)-3,3-dimethyl-1-[4-(2-piperidin-1-yl-ethoxy)-benzyl]-2,3-dihydro-1H-indol-5-ol] was 0.31 µM. With `CC1(C)c2cc(O)ccc2N(Cc2ccc(OCCN3CCCCCC3)cc2)C1(c1ccccc1)c1ccc(O)cc1` (stereo not shown) [Example No. 11, 1-[4-(2-Azepan-1-yl-ethoxy)-benzyl]-2-(4-hydroxy-phenyl)-3,3-dimethyl-2-Phenyl-2,3-dihydro-1H-indol-5-ol], the concentration for half-maximal inhibition (IC50) stood at 0.35 µM.
